Source: patent publication US8067456B2 (AEterna Zentaris GmbH, priority 2004, dated 2011)
Values after ≈ are worked out from the molar mass of the structure shown. Like-named read-outs stand apart in the source and are kept apart here.

Experiments:
LHRH receptor = molecular target: T1, LHRH receptor (Rattus norvegicus, UniProt P30969); assay: LHRH receptor-ligand binding assay (membrane preparations from rat pituitary cells); settings: competition with 0.05 nM [125I][D-Trp6]-LHRH, 90 min, 4° C., rat pituitary membranes
T1 construct: rat pituitary cells which naturally strongly express the LHRH receptor; from tissue; host or cells: rat pituitary cells (membrane preparation)
T1 sequence (P30969 1-327): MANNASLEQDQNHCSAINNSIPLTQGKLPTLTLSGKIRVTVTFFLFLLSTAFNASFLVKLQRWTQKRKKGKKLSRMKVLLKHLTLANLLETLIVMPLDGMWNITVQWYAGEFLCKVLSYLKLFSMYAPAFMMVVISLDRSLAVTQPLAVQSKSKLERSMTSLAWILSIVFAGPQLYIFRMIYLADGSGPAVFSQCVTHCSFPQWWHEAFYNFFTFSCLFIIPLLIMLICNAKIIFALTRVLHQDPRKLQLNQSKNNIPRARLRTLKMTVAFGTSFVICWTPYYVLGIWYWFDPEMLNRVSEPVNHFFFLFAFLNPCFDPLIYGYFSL
Experimental: Heterologous competition experiments were carried out using membrane preparations from rat pituitary cells which naturally strongly express the LHRH receptor. The ligand used in this case was [^125I][D-Trp^6]-LHRH in a concentration of 0.05 nM. Unlabeled [D-Trp^6]-LHRH was used in a concentration of 1 μM, or the test substance was used in the desired concentration, for competition. After an incubation time of 90 minutes at 4° C., the bound ligand was measured by scintillation (Halmos et al., Proc. Natl. Acad. Sci. USA, 1996, 93, 2398).
The result obtained was the percentage proportion of bound ligand in the presence of the competitor related to the specifically bound proportion of the control (see result for selected compounds in Table 3). EC50 values were calculated by nonlinear regression analysis of the competition plots.

[1] = Saturation solubility in water; format: physicochemical; settings: maximum of 1% DMSO added, HPLC UV; for solubility: water, thermodynamic from solid
Experimental: The saturation solubility in water was determined in accordance with the following description: to initiate dissolving of the substances and to improve the wetting of the samples, a maximum of 1% DMSO was added. The content was checked by using an HPLC UV method.

rat LHRH receptor = molecular target: T2, rat LHRH receptor (Rattus norvegicus, UniProt P30969); assay: LHRH receptor-ligand binding assay (transfected LTK cells); settings: LTK cells transfected with rat LHRH receptor, 125I-triptorelin tracer, 37° C., 60 min; read-out: Binding to r-LHRHR EC50
T2 construct: expressed in transfected cells; host or cells: LTK cells (mouse fibroblasts, ATCC CCL-1.3)
T2 sequence (P30969 1-327): T1 sequence (P30969 1-327)
Experimental: ^125I-Triptorelin [^125I-(D)-Trp6-GnRH] was purchased from Biotrend (Cologne, Germany).
The specific activity was in each case 2.13 Ci/mmol.
LTK cells (mouse fibroblasts: ATCC No. CCL-1.3) which have been transfected with the rat LHRH receptor are cultivated in DMEM medium (Invitrogen Life Technologies, Germany) with penicillin (100 I.U./ml), streptomycin (0.1 mg/ml) and glutamine (0.01 mol/l) and 10% fetal calf serum (FCS; Invitrogen Life Technologies, Germany) on plastic tissue culture plates (Nunc, Germany, 245×245-20 mm).
80% confluent cell culture plates are washed twice with 50 ml of phosphate-buffered saline (PBS) and then detached with 0.01 M EDTA solution. The cells are pelleted by centrifugation at 200·g for 5 min in a laboratory centrifuge (Kendro, Germany). The cell pellet is resuspended in 3 ml of binding medium (DMEM; 10 mM Hepes; 0.5% BSA; 0.1% […]; 1 g/l bacitracin (add fresh, stock 100×); 0.1 g/l SBTI (add fresh, stock 1000×) and the cell count is determined by Trypan blue staining in a Neubauer counting chamber. The cell suspension is adjusted with binding medium to a concentration of 5×10^5 cells/0.05 ml.
Binding studies for competition plots are carried out as duplicates. The test substances are employed as 10 mM DMSO solutions. They are diluted to 4 times the final concentration employed with binding medium. 25 μl of the substance dilution are mixed with 25 μl of tracer solution (^125I-triptorelin or ^125I-cetrorelix). The tracer concentration is adjusted to approx. 50 000 cpm (measured in a Cobra II, γ counter. PE Liefe Science, Germany) in the final reaction volume of 100 μl.
200 μl of silicone/liquid paraffin mixture (84%:16%) are introduced into 650 μl conical tubes (Roth. Germany). 50 μl of the cell suspension are pipetted thereon, followed by 50 μl of the test substance/tracer mixture. The tubes are capped and incubated with vertical rotation in an incubator at 37° C. for 60 min. After incubation, the samples are centrifuged in a centrifuge (Kendro, Germany) at 900 rpm and subsequently shock-frozen in liquid N2. The tip with the cell pellet is cut off and transferred into prepared counting vials (Roth, Germany). The remainder of the conical tube with the remaining supernatant is likewise transferred into a counting vial. The measurement takes place in a γ counter for 1 min/sample.
Evaluation of the samples takes place after calculation of the specific binding compared with untreated cells, after subtraction of the nonspecific binding (excess of unlabeled ligand, 1 μM) by means of GraphPad Prism or alternatively by means of OMMM software.

[2] = Metabolic stability in human liver microsomes; format: in vitro ADME; settings: 1 μM, 37° C., NADPH
Experimental: (§1) The metabolic stability in relation to liver microsomes (species human, rat) was determined in accordance with the following description: the substances were incubated at a test concentration of 1 […] An HPLC MS/MS method was subsequently used to quantify the unmetabolized amount of starting compound relative to 100%.

[3] = system: LHRH-stimulated LH secretion from rat pituitary cells; assay: Inhibition of LHRH-induced LH secretion from rat pituitary cells in vitro; format: cell-based
Experimental: The LH concentration in cell culture supernatants was measured using the rat luteinizing hormone (rLH) enzyme immunoassay (EIA) system ELISA (RPN 2562) from Amersham Pharmacia Biotech. All other chemicals used were from commercial sources in the highest purity available.
Juvenile male Wistar rats (Harlan Winkelmann, Germany) were sacrificed by decapitation, and the pituitaries were removed and taken up in Hanks' buffer (HBSS) with 0.3% BSA and 10 mM HEPES (pH 7.4). Pituitaries from 20 rats were required to carry out one experiment. The cells of the anterior lobe of the pituitary were separated from the remaining tissue by incubation in Hanks' buffer with 10 mM HEPES (pH 7.4), 0.3% BSA, 1 mg/ml hyaluronidase (type VIII), 1 mg/ml soybean trypsin inhibitor, 10 μg/ml DNAsel and 1 mg/ml papain at 37° C. for 30 minutes A sterile Pasteur pipette was used to disperse the cells, and they were subsequently pelleted by centrifugation. The cells were seeded in a density of 2.5×10^5 cells/well of a collagen-coated 48-well plate (Becton Dickinson) in DMEM medium (Invitrogen Life Technologies, Germany) with 10% fetal calf serum (FCS; Invitrogen Life Technologies, Germany), 10 mill nonessential amino acids and 10 mill Pen/Strep (penicillin/streptomycin).
The medium was changed after incubation at 37° C., 5% CO2 and 95% humidity for 48 h. The medium was replaced by LHRH-containing (10 nM) medium or medium with LHRH (10 nM) and test substance in the concentration indicated (table). After a further incubation for 3 hours, the cell supernatant was harvested and frozen at −20° C. The LH content was determined by means of ELISA in triplicate determination in accordance with the manufacturer's (Amersham Pharmacia Biotech) instructions.
In the following table, “% Inhibition” describes the quotient of LHRH-stimulated LH secretion with (“LH (ng/ml)” and without the addition of the test substance. The values originate from different, independent experiments.

[4] = Metabolic stability in rat liver microsomes; format: in vitro ADME; settings: 1 μM, 37° C., NADPH
Experimental: as §1

[5] = test substance 3.3 × 10^−8 M, LHRH 10 nM, 3 hours

Question: For `CCC(C)[C@H](NC(=O)Cc1ccc(F)cc1F)C(=O)N[C@]1(C(=O)N[C@H](C(N)=S)C(C)CC)CCc2[nH]c3c(Cl)cc(F)cc3c2C1` (stereo partly drawn) [Compound 66, (R)-8-chloro-3-{(S)-2-[2-(2,4-difluorophenyl)acetylamino]-3-methylpentanoylamino}-6-fluoro-2,3,4,9-tetrahydro-1H-carbazole-3-carboxylic acid ((S)-2-methyl-1-thiocarbamoylbutyl)amide], which EC50 (LHRH receptor) is on record?
Answer: 0.72 nM

Question: Which “Saturation solubility in water” value [1] does the source give for “benzyl[(S)-1-[(R)-3-((S)-carbamoyl-2-methylbutylcarbamoyl)-6,8-dichloro-2,3,4,9-tetrahydro-1H-carbazol-3-ylcarbamoyl]-3-(4-phosphonooxyphenyl)propyl]-carbamate [Compound 11]” here?
Answer: 39.9 µg/mL

Question: And the EC50 (rat LHRH receptor)?
Answer: 17.2 nM

Question: And the “Metabolic stability (human) [1 h, % recovery]” value [2]?
Answer: 77%

Question: Which EC50 (LHRH receptor) does the source give for `CCC(C)[C@H](NC(=O)[C@@]1(NC(=O)[C@@H](NC(=O)OCc2ccc(F)cc2)C(C)CC)CCc2[nH]c3c(Cl)cc(Cl)cc3c2C1)C(N)=O` (stereo partly drawn) [Compound 48, 4-fluorobenzyl {(S)-1-[(R)-3-((S)-1-carbamoyl-2-methylbutylcarbamoyl)-6,8-dichloro-2,3,4,9-tetrahydro-1H-carbazol-3-ylcarbamoyl]-2-methylbutyl}carbamate] here?
Answer: 8 nM

Question: With `CC[C@H](C)[C@H](NC(=O)[C@@]1(NC(=O)[C@H](Cc2ccc(OP(=O)(O)O)cc2)NC(=O)OCc2ccccc2)CCc2[nH]c3c(Cl)cc(Cl)cc3c2C1)C(N)=O` [Compound 9] as the compound, how does the solubility [1] read?
Answer: 151 µg/mL (≈ 191 µM)

Question: For `CCC(C)C(NC(=O)OCc1ccccc1)C(=O)NC1(C(=O)NC(C(N)=O)C2CCCCC2)CCc2[nH]c3c(Cl)cc(Cl)cc3c2C1` (centres unmarked) [Example 300 from WO 03/051837 A2, reference compound], which “Saturation solubility in water” value [1] is on record?
Answer: 0.38 µg/mL

Question: Which EC50 (LHRH receptor) does the source give for `CCC(C)[C@H](NCCc1ccc(F)cc1)C(=O)N[C@]1(C(=O)N[C@H](C(N)=S)C(C)CC)CCc2[nH]c3c(Cl)cc(F)cc3c2C1` (stereo partly drawn) [Compound 67, (R)-8-chloro-6-fluoro-3-{(S)-2-[2-(4-fluorophenyl)ethylamino]-3-methylpentanoylamino}-2,3,4,9-tetrahydro-1H-carbazole-3-carboxylic acid ((S)-2-methyl-1-thiocarbamoylbutyl)amide] here?
Answer: 6.9 nM

Question: Which results are given for `CCC(C)[C@H](NC(=O)[C@@]1(NC(=O)[C@@H](NC(=O)Cc2ccccc2F)C(C)CC)CCc2[nH]c3c(Cl)cc(Cl)cc3c2C1)C(N)=O` (stereo partly drawn) [Compound 4, (R)-6,8-dichloro-3-{(S)-2-[2-(2-fluorophenyl)acetylamino]-3-methylpentanoylamino}-2,3,4,9-tetrahydro-1H-carbazole-3-carboxylic acid ((S)-1-carbamoyl-2-methylbutyl)amide]?
Answer: inhibition at 0.033 µM ([3]; Rattus norvegicus, 3 h): 67%; LH (ng/ml) ± SD [3, 5]: 79.3 ± 5.7 ng/mL; EC50 (rat LHRH receptor): 4.8 nM

Question: Which EC50 (LHRH receptor) does the source give for `CCC(C)[C@H](NC(=O)[C@@]1(NC(=O)[C@@H](NC(=O)Cc2ccccc2F)C(C)CC)CCc2[nH]c3c(C(F)(F)F)cccc3c2C1)C(N)=O` (stereo partly drawn) [Compound 75, (R)-3-{(S)-2-[2-(2-fluorophenyl)acetylamino]-3-methylpentanoylamino}-8-trifluoromethyl-2,3,4,9-tetrahydro-1H-carbazole-3-carboxylic acid ((S)-1-carbamoyl-2-methylbutyl)amide] here?
Answer: 0.59 nM

Question: Which results are given for `CCC(C)[C@H](NC(=O)[C@@]1(NC(=O)[C@H](CCc2ccc(O)cc2)NC(=O)OCc2ccccc2)CCc2[nH]c3c(Cl)cc(Cl)cc3c2C1)C(N)=S` (stereo partly drawn) [Compound 10, benzyl[(S)-1-[(R)-6,8-dichloro-3-((S)-2-methyl-1-thiocarbamoylbutylcarbamoyl)-2,3,4,9-tetrahydro-1H-carbazol-3-ylcarbamoyl]-3-(4-hydroxyphenyl)propyl]carbamate]?
Answer: inhibition at 0.033 µM ([3]; Rattus norvegicus, test substance 3.3 × 10^−8 M, LHRH 10 nM, 3 hours, read-out: % Inhibition): 39%; inhibition at 0.0033 µM ([3]; Rattus norvegicus, test substance 3.3 × 10^−9 M, LHRH 10 nM, 3 hours): 0%; LH (ng/ml) ± SD [3, 5]: 118.7 ± 11.6 ng/mL; LH (ng/ml) ± SD ([3]; test substance 3.3 × 10^−9 M, LHRH 10 nM, 3 hours): 198.8 ± 4.2 ng/mL; EC50 (rat LHRH receptor): 7.5 nM

Question: Which recovery at 1 μM [4] does the source give for `CCC(C)[C@H](NC(=O)[C@@]1(NC(=O)[C@@H](NC(=O)OCc2ccccc2)C(C)CC)CCc2[nH]c3c(OC)cccc3c2C1)C(N)=O` (stereo partly drawn) [Example 294 from WO 03/051837 A2, Benzyl {(S)-1-[(R)-3-((S)-1-carbamoyl-2-methylbutylcarbamoyl)-8-methoxy-2,3,4,9-tetrahydro-1H-carbazol-3-ylcarbamoyl]-2-methylbutyl]carbamate, reference compound] here?
Answer: 5%

Question: What about the recovery at 1 μM [2] of the same compound?
Answer: 0%

Question: Which solubility [1] does the source give for `CCC(C)C(NC(=O)C1(NC(=O)C(CCc2ccc(O)cc2)NC(=O)OCc2ccccc2)CCc2[nH]c3c(Cl)cc(Cl)cc3c2C1)C(N)=O` (centres unmarked) [Example 303 from WO 03/051837 A2, Benzyl [1-[3-(1-carbamoyl-2-methylbutylcarbamoyl)-6,8-dichloro-2,3,4,9-tetrahydro-1H-carbazol-3-ylcarbamoyl]-3-(4-hydroxyphenyl)propyl]carbamate, reference compound] here?
Answer: 0.35 µg/mL (≈ 0.484 µM)
